In patent US8501183B2, “Immunogenic compositions and diagnostic and therapeutic uses thereof” (The Walter and Eliza Hall Institute of Medical Research, priority 2002, dated 2013):

What was measured:
[1] = test system: human antibody responses to the native GPI toxin; assay: Competition ELISA, synthetic glycan vs GPI; type: binding; conditions: competitor in molar excess
[2] = test system: anti-Glycan antibodies in human serum; assay: ELISA of human serum against synthetic glycan antigen; type: binding; conditions: serum of a malaria-exposed Papua New Guinean donor; BSA-conjugated glycan
[3] = IgG response of mice immunized with synthetic GPI glycan conjugate; type: in vivo; conditions: rodents
Experimental: All experiments were in accordance with local Animal Ethics Committee regulations. Young adult C57BL6 mice from Jackson Laboratories were pre-bled and inoculated with 6.5 μg KLH-glycan (0.176 μg glycan, n=16) or KLH-cysteine (sham-immunized, n=24) emulsified in Freund's Complete Adjuvant, and boosted with equal amounts of immunogen in Incomplete Freund's Adjuvant at 2 weekly intervals. After two boosts they were rested and injected i.p with 1×10^6 P. berghei ANKA-infected erythrocytes. Naïve mice (n=12) served as unimmunized controls. Parasitemias were assessed from Giemsa-stained thin films. Mortality was checked twice daily. Mice were judged as developing cerebral malaria if displaying neurological signs such as loss of reflex or ataxia, and dying between days 5 to 12 post-infection with relatively low parasitemia levels (below 15%). Differences in survival curves of P. berghei infected mice across this time-period were assessed by Cox-Mantel logrank transformation on Kaplan-Meier plots. Deaths from day 14 onwards with high parasitaemia (>60%) and low rates of cerebral vascular occlusion were ascribed to hyperparasitaema/haemolysis, and all animals failing to develop cerebral malaria eventually succumbed to this syndrome.
The synthetic malarial GPI glycan was immunogenic in rodents. […] No reactivity to GPI glycan was detected in pre-immune sera or in animals receiving sham-conjugated KLH. […]

[4] = ELISA titres of anti-GPI antibodies in sera of immunized mice; type: in vivo; conditions: mice immunized with free GPI in IFA
Experimental: Antigen (GPI-OVA, Glycan-OVA, BSA-PI, OVA or BSA alone) at 20 μg/ml in phosphate binding buffer was incubated overnight in 50 μl volumes in flat-bottomed Immunlon 96-well plates, followed by extensive washing with buffer. The plates were blocked with 1% BSA, 1% OVA in PBS for several hours. From a 1/32 dilution, sera were titrated two-fold in 1% BSA, 1% OVA in PBS, and 50 μl aliquots incubated in triplicate for 2 hours at room temperature, followed by extensive washing with 1% BSA, 1% OVA 0.05% Tween-20 in PBS. An aliquot of affinity purified, biotin-labelled isotype specific goat anti-mouse second antibody was incubated as above, followed by further washing and the addition of streptavidin-alkaline phosphatase. After 30 minutes the plates were washed again and colourimetric development initiated by the addition of p-Nitrophenylphosphate in diethanolamine buffer. Background binding to BSA/OVA-coated plates was determined in parallel. […]
Mice were immunized by three successive boosts of free intact malarial GPI emulsified in Incomplete Freund's Adjuvant spaced two weeks apart. […] After immunization, sera were bled and the titres of anti-GPI antibodies determined by ELISA. […] Parasitaemia, the development of neurological complications, and mortality were recorded daily. […]

[5] = type: in vivo, C3H/HeJ and C57B16 mice; conditions: primed with 20 mg D-galactosamine, agent after 1 hour
Experimental: In addition a standard murine model of TNF-driven lethality was used to determine whether GPI mediates parasite-induced acute toxic shock. This model manifests disseminated intravascular coagulation, peripheral vascular failure and shock, and thus has clinical features in common with the human “algid malaria” syndrome. LPS-non-responsive C3H/HeJ and C57B16 mice were primed with 20 mg D-galactosamine followed after 1 hour by purified GPI, PE or PBS alone.

[6] = Competition / PI-specific ELISA, epitope mapping of anti-GPI antibodies; type: binding; conditions: sera of mice immunized with free GPI
Experimental: Coupling of the purified GPI glycan to proteins was undertaken as above. To measure anti-lipid reactivities, we utilized commercially available phosphatidylinositol from Sigma with identical composition to the malarial GPI, namely dipalmitoyl-PI. 2 mg PI was coupled to defatted BSA according to published protocols (Bate, C. A. W., Taverne, J., Kwiatkowski, D., and Playfair, J. H. L. (1993) Immunology 79:138-145).
From a 1/32 dilution, sera or mAbs were titrated two-fold in 1% BSA in PBS, 0.05% Tween-20, and pre-incubated for 4 hours at room temperature with a molar excess of competitior (20 μg/ml PI, or phosphatidylserine (PS), or diluent alone). Antigen (BSA-PI or BSA alone) at 20 μg/ml in phosphate binding buffer was incubated overnight in 50 μl volumes in flat-bottomed Immunlon 96-well plates, followed by extensive washing with buffer. The plates were blocked with 1% BSA in PBS for several hours. 50 μl aliquots of titrated antibody with or without competitor were incubated in triplicate for 2 hours at room temperature, followed by extensive washing with 1% BSA 0.05% Tween-20 in PBS. An aliquot of affinity purified, biotin-labelled isotype specific goat anti-mouse second antibody was incubated as above, followed by further washing and the addition of streptavidin-alkaline phosphatase. […] Background binding to BSA-coated plates was determined in parallel. […]

P. berghei ANKA = P. berghei ANKA cerebral malaria challenge of immunized mice; type: in vivo, C57Bl/6 mice
From the text: Mice were immunized by three successive boosts of free intact malarial GPI emulsified in Incomplete Freund's Adjuvant spaced two weeks apart. Control mice received an equal amount of IFA alone. After immunization, sera were bled and the titres of anti-GPI antibodies determined by ELISA. All animals immunized with GPI developed broadly similar levels of anti-GPI antibodies (range 1/1024-1/4096) among individual animals. […] Two weeks after the final boost mice were challenged with P. berghei ANKA. Parasitaemia, the development of neurological complications, and mortality were recorded daily. No difference in parasitaemia was observed. In the control group, 100% of animal manifested between day 5 and 9 an aggressive cerebral syndrome with neurological signs proceeding to rapid death with 12 hours. […]
The P. berghei ANKA murine cerebral malaria model has many features in common with the human cerebral malaria syndrome. […] Parasitaemia, the development of neurological complications, and mortality were recorded daily. […]

Row | Substance | competition of human antibody responses to native GPI [1] | detection of antibodies in human serum [2] | immunogenicity [3] | isotype of the anti-GPI response [4] | recipients with lethal shock [5] | epitope specificity of the antibody response [6] | parasitaemia (P. berghei ANKA; after P. berghei ANKA challenge two weeks after final boost, vs control groups) | rate of deaths (P. berghei ANKA; free GPI in IFA vs IFA alone, P. berghei ANKA challenge)
1 | NH2—CH2—CH2—PO4-(Manα1-2)6Manα1-2Manα1-6Manα1-4GlcNH2α1-6myo-Insositol-1,2 cyclic phosphate [synthetic GPI glycan] | compete out the majority of human antibody responses to the native GPI toxin | able specifically to detect anti-Glycan antibodies in human serum | immunogenic | – | – | – | – | –
2 | NH—CH2—CH2—PO4-(Manα1-2)-6Manα1-2Manα1-6Manα1-4GlcN-H2α1-6(myristoyl)-myo-Inositol-1-PO4-dipalmitoylglycerol [free GPI] | – | – | – | predominantly IgM | 100% | directed predominantly towards the lipidic (phosphatidylinositol, PI) domain of the molecule | No difference | noticeable faster rate
